How the values were obtained:
[1] = test system: ARPE-19 cells; experiment: In vitro SMN1 viability assay (CellTiter-Glo); type: cell-based; details: for Percent Mean Viability (± SD): 48 h
Procedure: (§1) Cells were seeded in 96-well plates (ARPE-19, 4×10^3 cells/well) in complete medium (DMEM/F12 1:1, 10% FCS; 10 mM HEPES, 1× GlutaMAX™, Pen/Strep 100 u/ml; Gibco, Thermo Fisher Scientific, Waltham, Mass., USA). Cells were incubated overnight (37° C., 5% CO2) to allow for cell adherence. On the day of the assay, media was aspirated and replaced with CPP-PMO or PMO only diluted in treatment media (DMEM/F12 1:1, 10% FCS; 10 mM HEPES, 1× GlutaMAX™, Pen/Strep 100 u/ml; Gibco, Thermo Fisher Scientific, Waltham, Mass., USA) at various concentrations (32, 16, 8, 4, 2, and 1 uM), followed by incubation (37° C., 5% CO2) for 24 h. Fresh media 1:1 was added the following day and cells returned to the incubator for a further 24 h.
48 h post-treatment, viability of the cells was measured using the commercial CellTiter-Glo® Luminescent Cell Viability Assay (Promega, Australia). In brief the CellTiter-Glo reagent lyses the cells and generates a luminescent signal that is proportional to the amount of ATP present, which in turn is directly proportional to the number of live cells present in culture. All assays were conducted with a known cytotoxic agent, melittin (Renata et al. 2007), and cell only control. Cell viability was used to determine the level of toxicity caused by the CPP-PMO conjugates, where high viability equates to low toxicity, and low viability with high toxicity, respectively.

[2] = test system: GFAP; experiment: GFAP in vivo toxicity assay (ddPCR of Gfap mRNA after intravitreal injection); details: 5 days, mouse; for GFAP score (± SD): intravitreal 1.6 ug per eye, Gfap mRNA normalised to housekeeping genes
Description: Glial fibrillary acidic protein (GFAP) is an intermediate-filament cytoskeletal protein. Levels of GFAP are strongly influenced by injury or stress in some cell types and GFAP expression has become an important marker of injury in the central nervous system. In the eye, Muller glia cells normally express low levels of GFAP which increases considerably following retinal injury.
Expression of GFAP mRNA was quantified via amplification of cDNA obtained as part of the in vivo Smn efficacy assay described above. ddPCR was performed using BioRad droplet generator and reader (QX200 DG8) and thermocyclers (T100), specific probes for murine Gfap (dMmuCPE5116126) and housekeeping genes Gapdh, Eef1a1 and Rp127 (dMmuCPE5195283, dMmuCPE5101732 and dMmuCPE5197083) as well as ddPCR Master mix for Probes (#1863024) and other ddPCR specific consumables from BioRad (#1863005, 12001925, 1863004, 1864007).
Assay results were obtained by BioRad ddPCR software in copies/uL. This was then normalised to housekeeping genes for comparison across experiments.

[3] = test system: Smn gene exon 7; experiment: In vivo Smn efficacy assay (IVT administration), exon-7 skipping in ocular tissues; details: mouse; for Percent exon7-skipped SMN1 transcript (± SD): intravitreal 1.6 ug per eye
Description: The in vitro SMN1 efficacy assay described in Example 1 is equally applicable to the in vivo setting, given the ubiquitous distribution of the Smn gene in the mouse body, Smn being the mouse orthologue of the human SMN1. The use of natural L-peptides is undesirable in the in vivo setting, due to presence of a vast array of proteases in the body. To adequately assess the peptide's cell-penetrating capacity, peptides were synthesized as either mixed-L/D amino acid containing peptides, where all basic residues were D-amino acids, or as full-D amino acid containing peptides. Both approaches have been established to protect peptides from proteolytic degradation during systemic administration into animals.
The ability of CPP-PMOs to deliver the Smn cargo in vivo to the RPE cell later in the eye was assessed by administration into the vitreous humor of mice and measuring the change in Smn transcript levels in the retina, RPE and choroid cell layers after 5, 7, 21 and 28 days. The CPP of the present invention (SEQ ID NO: 1) and control CPP Pip6a (SEQ ID NO: 3), conjugated to an Smn PMO (SEQ ID NO: 2), were administered by intravitreal injection at 1.6 ug (0.5 ul volume) per eye. At the desired time point post treatment, the animals were culled and eyes were dissected, tissue layers homogenised and RNA extracted using the same protocol as per Example 1.
The efficiency of delivery and function to the various organs was determined by measuring the change in Smn RNA transcript from full-length to an exon-7 skipped fragment (D7-Smn) RNA transcript, using RNA extraction, cDNA generation and PCR using Smn-specific primers. Efficiency was interpreted by the higher the percentage D7-Smn transcript, the better the delivery to the tissue by the CPP.
Exon skipping assays and RT-PCR detection were performed according to published protocols (Mann et al 2002, Gene Med, 4, 644-654).
Mice (C576/6; age 7 weeks) were sourced from Australian BioResources (ABR). Selected CPP-PMOs were injected into the vitreous at 1.6 ug (0.5 ul) per eye, with one to three mice per treatment group.
48 h post-treatment, mice were culled, and the following ocular tissues harvested; retina, RPE layer or RPE/choroid combined. The tissues were homogenised, and RNA was obtained using commercial RNA extraction kits according to manufacturer's protocol (Bio-Rad Aurum total RNA 96 kit; Quantify RNA yield; Quant-iT RNA BR kit).
(§2) Extracted RNA was purified, quantified and then diluted to 10 ng/ul. cDNA was produced using a commercial reverse transcription kit according to the manufacturers protocol (BioRad iScript). The produced cDNA was used as a template with primers designed to amplify region of interest, to amplify the DNA. The efficacy of exon skipping was determined by quantifying full length (FL Smn) and exon-7 skipped fragment (D7-Smn) of the Smn gene (LC-GX Nucleic Acid Analyzer) and calculating a percentage. The higher the percentage of D7-Smn DNA, the greater the CPP delivery efficiency.

[4] = test system: exon 7 of the SMN1 gene; experiment: In vitro SMN1 efficacy assay (exon-7 skipping, ARPE-19 cells); type: cell-based, human; details: for Percent exon7-skipped SMN1 transcript (± SD): 48 h post treatment
Procedure: Potential CPP peptides were linked to a […] that targets exon 7 of the SMN1 gene (Flynn et al 2018), using strain-promoted (SPAAC) click chemistry (Agard et al 2004, Dommerholt et al. 2016). Peptide-PMO conjugates were incubated on ARPE-19 cells for 2 days in full media. Efficacy of internalization was measured by the degree of exon7 skipping in the SMN1 gene RNA transcript through RNA extraction. Peptide-PMOs with % d7 transcript higher than the PMO treatment alone were considered CPPs.
Using the SMN1 gene, we built an exon-skipping assay targeting the SMN1 gene (Flynn et al 2018) at exon-7 using a phosphorodiamidate morpholino oligonucleotide (PMO) conjugated to different CPPs. This assay was used to identify CPPs that could efficiently deliver PMO cargo to the nucleus and effect exon-skipping of SMN1. Efficiency of delivery and function was determined by measuring the change in D7-SMN1 RNA transcript, using RNA extraction, cDNA generation and PCR using SMN1-specific primers. Efficiency was interpreted by the higher the percentage D7-SMN1 transcript, the better the delivery to the nucleus by the CPP.
Exon skipping assays and PCR detection were performed according to published protocols (Mann et al 2002, Gene Med, 4, 644-654).
Retinal pigment epithelial cells (ARPE-19) immortalized cells were treated with various concentrations (4 uM, 2 uM, 1 uM, in duplicate) of CPP-PMO conjugate and SMN1 transcript levels assessed 48 h post treatment by RNA extraction and purification, followed by cDNA generation and PCR.
as §1, with “24-well” for “96-well”, “2.5×10^4” for “4×10^3”, “USA),” for “USA) at various concentrations (32, 16, 8, 4, 2, and 1 uM),”
48 h post-treatment, the cell media was carefully aspirated, and cells rinsed with PBS. RNA from the treated cells was obtained using commercial RNA extraction kits according to manufacturer's protocol (Bio-Rad Aurum total RNA 96 kit; Quantify RNA yield; Quant-iT RNA BR kit).
as §2, with “SMN1)” for “Smn)”, “(D7-SMN1)” for “(D7-Smn)”, “SMN1” for “Smn”, “D7-SMN1” for “D7-Smn”, “efficiency” for “efficiency.”

Substance | Percent Mean Viability (± SD) ([1]; 2 uM) [%] | Percent Mean Viability (± SD) ([1]; 4 uM) [%] | Percent Mean Viability (± SD) ([1]; 8 uM) [%] | Percent Mean Viability (± SD) ([1]; 16 uM) [%] | Percent Mean Viability (± SD) ([1]; 32 uM) [%] | GFAP score (± SD) [2] | Percent exon7-skipped SMN1 transcript (± SD) ([3]; RPE/choroid, 5 days) [%] | Percent exon7-skipped SMN1 transcript (± SD) ([3]; RPE/choroid, 7 days) [%] | Percent exon7-skipped SMN1 transcript (± SD) ([3]; retina, 5 days) [%] | Percent exon7-skipped SMN1 transcript (± SD) ([3]; retina, 28 days) [%] | Percent exon7-skipped SMN1 transcript (± SD) ([4]; 1 uM) | Percent exon7-skipped SMN1 transcript (± SD) ([4]; 2 uM) | Percent exon7-skipped SMN1 transcript (± SD) ([4]; 4 uM) | Cell viability relative to PMO alone (less deleterious) ([1]; 32 uM for 48 hours) [fold] | GFAP expression in vivo (in words) ([2]; intravitreal) | Truncated D7-Smn transcript in vivo compared with Smn PMO alone (in words) ([3]; intravitreal, RPE/choroid and retina) | Efficiency in inducing SMN1 exon-skipping relative to SMN1 PMO only treatment ([4]; 2 uM) [fold]
ACTTTCCTTCTTTTTTATTTTGTCT (PMO, 5' cyclooctyne handle, chemistry not fully specified; listed as Homo sapiens) [SEQ ID NO: 2, phosphorodiamidate morpholino oligonucleotide (PMO) targeting exon 7 of SMN1, with 5' cyclooctyne handle; unconjugated cargo control] | 99.41 | 100.01 | 99.11 | 97.42 | 93.61 | 0.0262 | 0.00 | 0.00 | 0.00 | 0.77 | 16.59 (± 4.07) Percent | 17.35 (± 4.97) Percent | 18.34 (± 5.99) Percent |  |  |  | 
RXRRBRRXRYQFLIRXRBRXRB[azk]ACTTTCCTTCTTTTTTATTTTGTCT [SEQ ID NO: 3[azk]2] |  |  |  |  |  | 0.1637 | 9.94 | 6.70 | 21.66 | 3.39 |  |  |  |  |  |  | 
rrsrtaraGrpGrnssrpsapr[azk]ACTTTCCTTCTTTTTTATTTTGTCT (chain 1 RRSRTARAGRPGRNSSRPSAPR; chain 2 actttccttcttttttattttgtct; azidolysine SPAAC click linkage; listed as Homo sapiens) [SEQ ID NO: 1[azk]2] | 102.61 | 105.23 | 103.34 | 102.52 | 98.20 | 0.0324 | 13.05 | 12.22 | 19.61 | 13.71 | 19.44 (± 3.82) Percent | 21.38 (± 2.10) Percent | 29.99 (± 3.96) Percent | 1.05 | very little GFAP expression | creates more truncated D7-Smn transcript than the Smn PMO alone | 1.2

Reference: US20230048338A1, “NOVEL CELLULAR DELIVERY METHODS” (PYC Therapeutics Limited, priority 2019, published 2023)
